How the values were obtained:
[1] = molecular target: BRAFV600E mutation (Homo sapiens, UniProt P15056, V600E); settings: Sala et al. 2008; cited from earlier work
[2] = test system: MEK and ERK phosphorylation in RWPE cells expressing ESRP1-RAF1; settings: U0126 (10 μM) for 2 h, FIG. 4e
Description: (§1) MEK-ERK signaling pathway analysis. Stable pooled populations of RWPE cells expressing SLC45A3-BRAF or […] were maintained in supplement-free medium without supplements for 2 h. For MEK inhibitor treatments, U0126 (10 μM) was added in the supplement-free keratinocyte medium for 2 h. MEK and ERK activation was assessed by western blot analysis with antibodies to phospho-MEK or ERK and total MEK or ERK antibodies (Cell Signaling Technologies).

[3] = test system: MEK and ERK phosphorylation in RWPE cells expressing SLC45A3-BRAF; settings: U0126 (10 μM) for 2 h, FIG. 4e
Description: as §1

[4] = test system: MEK½ and ERK½ phosphorylation in BRAFV600E mutation-positive melanoma cell line SK-MEL-94; settings: SK-MEL-94 control cell line
Description: as §1

[5] = test system: RWPE cells expressing ESRP1-RAF1; settings: sorafenib (10 μM) or U0126 (1 or 10 μM), FIG. 4a,b
Description: (§2) Cell invasion and proliferation assays. Equal numbers of cells were plated into 96-well plates, and a cell proliferation assay was performed using WST-1 reagent (Roche) following the manufacturer's protocol. For the Boyden chamber Matrigel invasion assay, equal numbers of cells were plated into each Matrigelcoated transwell in the presence of sorafenib or U0126 (Calbiochem) or DMSO (Sigma). Invasion assays were performed as described previously (Kleer, C. G. et al. Proc. Natl. Acad. Sci. USA 100, 11606-11611 (2003); Cao, Q. et al. Oncogene 27, 7274-7284 (2008)).

[6] = test system: RWPE cells expressing SLC45A3-BRAF; settings: sorafenib (10 μM) or U0126 (1 or 10 μM), FIG. 4a,b
Description: as §2

[7] = test system: DUSP6 or SPRY2 mRNA expression in RWPE cells expressing SLC45A3-BRAF; settings: U0126, 10 mM, 2 hours, Keratinocyte-supplement free media, FIG. 11
Description: as §1
(§3) Real Time PCR validation. Quantitative PCR (QPCR) was performed using Power SYBR Green Mastermix (Applied Biosystems) on an Applied Biosystems StepOnePlus Real-Time PCR System. All oligonucleotide primers were obtained from Integrated DNA Technologies and are listed below. The GAPDH primer was used as a control. All assays were performed and repeated twice and results were plotted as average fold change relative to GAPDH.

[8] = test system: DUSP6 or SPRY2 mRNA expression in RWPE cells expressing ESRP1-RAF1; settings: U0126, 10 mM, 2 hours, Keratinocyte-supplement free media, FIG. 11
Description: as §1, §3

[9] = test system: RWPE cells stably expressing ESRP1-RAF1; settings: sorafenib or U0126 (10 μM), 14 d, FIG. 4c,d
Description: (§4) In vitro soft agar growth. For in vitro growth in soft agar, 2 ml of 0.6% SeaPlaque GTG Agarose (Cambrex) dissolved in complete keratinocyte supplement-free medium (Invitrogen) was poured into six-well dishes. After polymerization, a second layer containing 2 ml of 0.4% agar in complete keratinocyte supplement-free medium, and RWPE cells stably expressing SLC45A3-BRAF or ESRP1-RAF 1 (1×10^4 cells per well) were poured on top. The next day, cells were treated with sorafenib or U0126 (10 μM) in 1 ml of supplement-free keratinocyte medium. Soft-agar assay plates were incubated for 14 d at 37° C. MEK inhibitor (U0126) or sorafenib was changed once a week. Each experimental condition was done in triplicate. On day 14, colonies larger than 40 μm in diameter were counted.

[10] = test system: RWPE cells stably expressing SLC45A3-BRAF; settings: sorafenib or U0126 (10 μM), 14 d, FIG. 4c,d
Description: as §4

[11] = test system: RWPE cells overexpressing ESRP1-RAF1; assay: Cell proliferation assay (WST-1); format: cell-based, human; settings: RWPE cells overexpressing ESRP1-RAF1, FIG. 3d
From the text: Cell invasion and proliferation assays.

[12] = test system: RWPE cells overexpressing SLC45A3-BRAF; settings: FIG. 3c
Description: as §2

BRAFV600E mutation, sequence (P15056 whole entry V600E): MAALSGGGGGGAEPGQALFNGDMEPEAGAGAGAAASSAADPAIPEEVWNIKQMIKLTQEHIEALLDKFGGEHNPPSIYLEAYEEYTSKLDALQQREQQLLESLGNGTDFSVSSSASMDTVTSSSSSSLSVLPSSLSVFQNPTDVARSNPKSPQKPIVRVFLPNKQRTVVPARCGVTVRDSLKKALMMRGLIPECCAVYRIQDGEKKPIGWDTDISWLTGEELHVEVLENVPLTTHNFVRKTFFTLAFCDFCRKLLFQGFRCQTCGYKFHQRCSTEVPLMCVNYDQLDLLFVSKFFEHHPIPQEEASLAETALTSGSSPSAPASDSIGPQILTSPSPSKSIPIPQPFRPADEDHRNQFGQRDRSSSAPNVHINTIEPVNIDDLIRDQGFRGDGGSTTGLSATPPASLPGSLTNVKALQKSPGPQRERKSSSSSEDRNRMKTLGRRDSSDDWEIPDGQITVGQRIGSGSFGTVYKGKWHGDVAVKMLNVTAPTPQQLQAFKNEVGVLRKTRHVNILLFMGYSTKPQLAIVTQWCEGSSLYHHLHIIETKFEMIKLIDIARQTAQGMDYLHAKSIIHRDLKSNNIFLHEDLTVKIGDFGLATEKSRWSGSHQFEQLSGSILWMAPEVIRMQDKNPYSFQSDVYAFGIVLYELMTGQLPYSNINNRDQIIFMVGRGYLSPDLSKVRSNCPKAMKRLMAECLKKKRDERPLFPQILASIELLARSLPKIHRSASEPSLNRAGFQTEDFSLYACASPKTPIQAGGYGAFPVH

SMILES	selectivity for the BRAFV600E mutation [1]	MEK and ERK phosphorylation, sensitivity to inhibitor [2]	MEK and ERK phosphorylation, sensitivity to inhibitor [3]	MEK½ and ERK½ phosphorylation [4]	fusion-mediated cell invasion, sensitivity to inhibitor [5]	fusion-mediated cell invasion, sensitivity to inhibitor [6]	DUSP6 or SPRY2 mRNA expression [7]	DUSP6 or SPRY2 mRNA expression [8]	anchorage-independent colony growth in soft agar, sensitivity to inhibitor [9]	anchorage-independent colony growth in soft agar, sensitivity to inhibitor [10]	increased cell proliferation, sensitivity to inhibitor [11]	increased cell proliferation, sensitivity to inhibitor [12]
CC(C)S(=O)(=O)Nc1ccc(F)c(C(=O)c2c[nH]c3ncc(-c4cccnc4)cc23)c1F [PLX-4032]	highly selective	–	–	–	–	–	–	–	–	–	–	–
N#CC(=C(/N)Sc1ccccc1N)/C(C#N)=C(\N)Sc1ccccc1N [U0126]	–	sensitive	sensitive	decreased	sensitive	sensitive	significantly decreases	significantly decreases	sensitive	sensitive	–	–
CNC(=O)c1cc(Oc2ccc(NC(=O)Nc3ccc(Cl)c(C(F)(F)F)c3)cc2)ccn1 [sorafenib, N-(3-trifluoromethyl-4-chlorophenyl)-N′-(4-(2-methylcarbamoylpyridin-4-yl)oxyphenyl)urea]	–	–	–	–	sensitive	sensitive	–	–	sensitive	sensitive	sensitive	sensitive
